pIC50: −log10 of the molar value.
Legend:
Format in all cases: biochemical
[1] = target: EGFR (Homo sapiens, UniProt P00533); assay: EGFR MALDI; conditions: read-out: Target #1 IC50
Procedure: (§1) Metal salt solutions for the metal ion interference set (MIIS) were prepared as 10 mM stock solutions in DMSO (see Table 3). All metal salts used have been purchased at highest industrial grade.

[2] = test system: off-target; assay: SOS1 AlphaScreen, Target #2
Procedure: as §1

[3] = test system: off-target; assay: MDM2 AlphaScreen, Target #2
Procedure: as §1

[4] = target: LSD1 (Homo sapiens, UniProt O60341); assay: LSD1 DELFIA; conditions: read-out: Target #1 IC50
Procedure: as §1

[5] = test system: off-target (int.); assay: WRN ADP-Glo, Target #3
Procedure: as §1

[6] = target: T1, SOS1 (Homo sapiens, UniProt Q07889); assay: SOS1 AlphaScreen, Target #1
T1 sequence (Q07889 1-1333): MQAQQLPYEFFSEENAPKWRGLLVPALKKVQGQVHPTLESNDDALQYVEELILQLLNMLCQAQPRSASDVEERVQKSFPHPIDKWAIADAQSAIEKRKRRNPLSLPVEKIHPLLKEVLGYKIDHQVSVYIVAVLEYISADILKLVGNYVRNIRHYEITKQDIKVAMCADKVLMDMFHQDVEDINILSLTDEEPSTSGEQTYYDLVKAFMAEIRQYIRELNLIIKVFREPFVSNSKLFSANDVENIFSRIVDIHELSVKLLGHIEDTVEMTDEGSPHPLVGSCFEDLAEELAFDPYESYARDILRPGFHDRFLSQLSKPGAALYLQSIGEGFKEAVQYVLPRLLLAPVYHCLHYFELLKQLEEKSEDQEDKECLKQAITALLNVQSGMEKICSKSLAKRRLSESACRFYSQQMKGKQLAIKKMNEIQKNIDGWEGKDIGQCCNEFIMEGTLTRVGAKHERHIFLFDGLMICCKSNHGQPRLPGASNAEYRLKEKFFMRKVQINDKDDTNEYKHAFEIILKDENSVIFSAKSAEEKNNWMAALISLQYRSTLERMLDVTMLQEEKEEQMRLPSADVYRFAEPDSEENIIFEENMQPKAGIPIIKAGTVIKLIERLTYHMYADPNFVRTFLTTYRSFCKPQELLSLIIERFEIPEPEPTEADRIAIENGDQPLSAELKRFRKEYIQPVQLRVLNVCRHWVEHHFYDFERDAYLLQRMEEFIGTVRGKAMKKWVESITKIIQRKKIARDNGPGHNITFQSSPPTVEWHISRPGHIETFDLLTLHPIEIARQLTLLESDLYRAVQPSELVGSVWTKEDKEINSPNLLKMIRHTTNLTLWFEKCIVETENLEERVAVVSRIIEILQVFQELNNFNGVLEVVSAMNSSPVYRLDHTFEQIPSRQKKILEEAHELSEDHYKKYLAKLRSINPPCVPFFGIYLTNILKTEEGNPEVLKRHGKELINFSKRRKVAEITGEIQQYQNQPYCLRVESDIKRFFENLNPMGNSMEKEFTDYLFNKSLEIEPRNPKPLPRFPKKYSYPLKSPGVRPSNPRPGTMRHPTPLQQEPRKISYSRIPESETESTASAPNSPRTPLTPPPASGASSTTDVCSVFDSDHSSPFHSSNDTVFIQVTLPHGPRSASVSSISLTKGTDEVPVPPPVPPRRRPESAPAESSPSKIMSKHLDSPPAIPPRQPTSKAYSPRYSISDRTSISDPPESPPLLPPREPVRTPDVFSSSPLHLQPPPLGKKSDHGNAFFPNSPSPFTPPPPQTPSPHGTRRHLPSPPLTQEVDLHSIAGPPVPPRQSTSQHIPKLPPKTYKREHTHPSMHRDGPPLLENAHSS
Procedure: as §1

[7] = target: WRN (int.) (Homo sapiens, UniProt Q14191); assay: WRN ADP-Glo, Target #1
Procedure: as §1

Sequence of WRN (int.) (Q14191 whole entry, species assumed): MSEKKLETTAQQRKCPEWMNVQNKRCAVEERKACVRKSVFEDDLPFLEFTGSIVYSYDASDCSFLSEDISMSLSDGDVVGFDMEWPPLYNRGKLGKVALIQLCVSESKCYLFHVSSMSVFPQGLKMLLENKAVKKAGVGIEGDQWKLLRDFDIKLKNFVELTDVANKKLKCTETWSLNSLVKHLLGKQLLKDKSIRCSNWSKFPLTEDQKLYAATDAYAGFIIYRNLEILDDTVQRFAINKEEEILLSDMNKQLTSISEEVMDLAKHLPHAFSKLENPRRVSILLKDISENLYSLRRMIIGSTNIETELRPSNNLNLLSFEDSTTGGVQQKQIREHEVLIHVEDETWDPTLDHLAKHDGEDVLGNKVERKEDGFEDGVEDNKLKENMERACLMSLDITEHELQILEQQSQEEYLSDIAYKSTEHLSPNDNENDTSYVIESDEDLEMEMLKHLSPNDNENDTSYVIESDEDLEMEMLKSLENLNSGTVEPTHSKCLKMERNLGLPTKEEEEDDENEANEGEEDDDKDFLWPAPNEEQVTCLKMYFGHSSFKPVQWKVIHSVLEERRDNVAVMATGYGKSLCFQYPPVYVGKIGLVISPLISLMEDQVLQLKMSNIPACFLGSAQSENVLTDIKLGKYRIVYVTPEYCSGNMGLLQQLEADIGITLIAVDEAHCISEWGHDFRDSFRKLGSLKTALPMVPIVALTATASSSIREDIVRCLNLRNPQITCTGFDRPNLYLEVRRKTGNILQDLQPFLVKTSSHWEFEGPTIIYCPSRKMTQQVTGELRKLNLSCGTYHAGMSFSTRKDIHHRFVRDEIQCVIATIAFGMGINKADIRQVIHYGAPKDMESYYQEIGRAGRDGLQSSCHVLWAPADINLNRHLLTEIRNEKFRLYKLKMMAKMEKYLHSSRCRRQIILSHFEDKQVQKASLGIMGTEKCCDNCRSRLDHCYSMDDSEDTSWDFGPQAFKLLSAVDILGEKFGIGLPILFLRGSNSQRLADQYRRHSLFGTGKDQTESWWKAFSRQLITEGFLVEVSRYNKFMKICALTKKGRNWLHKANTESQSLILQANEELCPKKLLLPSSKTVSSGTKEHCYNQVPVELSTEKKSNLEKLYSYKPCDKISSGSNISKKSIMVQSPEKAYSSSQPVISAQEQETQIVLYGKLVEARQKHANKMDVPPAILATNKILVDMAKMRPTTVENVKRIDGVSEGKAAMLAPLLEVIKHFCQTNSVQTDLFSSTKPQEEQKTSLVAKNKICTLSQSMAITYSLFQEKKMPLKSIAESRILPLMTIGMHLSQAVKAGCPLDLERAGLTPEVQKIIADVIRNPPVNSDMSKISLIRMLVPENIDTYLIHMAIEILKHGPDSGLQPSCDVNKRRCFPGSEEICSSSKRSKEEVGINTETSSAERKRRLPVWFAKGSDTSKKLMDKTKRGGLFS
Sequence of EGFR (P00533 25-1210, species assumed): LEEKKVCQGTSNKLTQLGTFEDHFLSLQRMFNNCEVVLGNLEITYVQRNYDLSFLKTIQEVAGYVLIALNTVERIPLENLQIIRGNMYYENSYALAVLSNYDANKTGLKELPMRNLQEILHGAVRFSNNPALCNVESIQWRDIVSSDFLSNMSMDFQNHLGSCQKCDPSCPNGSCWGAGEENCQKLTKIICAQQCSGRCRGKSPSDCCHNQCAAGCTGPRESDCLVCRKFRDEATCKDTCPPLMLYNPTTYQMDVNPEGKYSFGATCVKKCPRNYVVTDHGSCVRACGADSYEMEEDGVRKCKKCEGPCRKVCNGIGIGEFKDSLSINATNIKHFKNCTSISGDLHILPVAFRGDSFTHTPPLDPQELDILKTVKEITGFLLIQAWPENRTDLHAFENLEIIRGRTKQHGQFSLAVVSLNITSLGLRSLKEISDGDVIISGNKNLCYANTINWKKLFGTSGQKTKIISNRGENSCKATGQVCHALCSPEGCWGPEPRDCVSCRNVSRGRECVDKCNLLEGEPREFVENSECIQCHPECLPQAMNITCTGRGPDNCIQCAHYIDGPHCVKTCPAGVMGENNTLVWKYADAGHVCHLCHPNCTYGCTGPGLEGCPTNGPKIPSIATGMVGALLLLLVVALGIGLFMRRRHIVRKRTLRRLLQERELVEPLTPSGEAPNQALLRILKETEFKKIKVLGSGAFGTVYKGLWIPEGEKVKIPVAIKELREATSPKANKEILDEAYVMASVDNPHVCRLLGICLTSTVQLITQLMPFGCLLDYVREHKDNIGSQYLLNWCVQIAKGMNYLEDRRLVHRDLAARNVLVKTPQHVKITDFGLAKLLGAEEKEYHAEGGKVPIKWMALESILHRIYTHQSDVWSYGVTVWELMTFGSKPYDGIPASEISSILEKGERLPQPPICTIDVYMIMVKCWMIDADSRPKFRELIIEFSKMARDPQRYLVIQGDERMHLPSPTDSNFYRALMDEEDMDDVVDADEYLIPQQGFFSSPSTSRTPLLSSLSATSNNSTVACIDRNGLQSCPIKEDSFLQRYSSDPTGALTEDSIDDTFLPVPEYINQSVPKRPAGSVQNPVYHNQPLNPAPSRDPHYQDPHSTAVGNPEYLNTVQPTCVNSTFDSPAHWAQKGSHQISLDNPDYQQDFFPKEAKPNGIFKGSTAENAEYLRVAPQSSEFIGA

Row | pIC50 [1] | pIC50 [2] | pIC50 [4] | pIC50 [5] | pIC50 [6] | pIC50 [7] | Compound | pIC50 [3]
1 | < 5.00 | < 5.00 | 5.00 to 6.00 | < 5.00 | > 6.00 | < 5.00 | [Cl][Au]([Cl])[Cl] [AuCl3, Gold(III) chloride] | < 5.00
2 | < 5.00 | < 5.00 | < 5.00 | < 5.00 | 5.00 to 6.00 | < 5.00 | [Cl][Cu][Cl] [CuCl2, Copper(II) chloride] | < 5.00
3 | < 5.00 | < 5.00 | < 5.00 | < 5.00 | < 5.00 | < 5.00 | [Cl][Fe][Cl] [FeCl2, Iron(II) chloride] | 
4 | < 5.00 | < 5.00 | < 5.00 | < 5.00 | < 5.00 | < 5.00 | [Cl][Fe]([Cl])[Cl] [FeCl3, Iron(III) chloride] | < 5.00
5 | < 5.00 | < 5.00 | < 5.00 | < 5.00 | < 5.00 | < 5.00 | [Cl][Mn][Cl] [MnCl2, Manganese(II) chloride] | < 5.00

Continued, compound first:

Row | Compound | pIC50 [1] | pIC50 [2] | pIC50 [4] | pIC50 [5] | pIC50 [6] | pIC50 [7] | pIC50 [3]
6 | CC(=O)[O-].[Ag+] [Ag (CH 3COO), Silver acetate] | < 5.00 | < 5.00 | 5.00 to 6.00 | < 5.00 | > 6.00 | < 5.00 | < 5.00
7 | O=[N+]([O-])[O-].O=[N+]([O-])[O-].O=[N+]([O-])[O-].[Al+3] [Al(NO3)3, Aluminum nitrate] | < 5.00 | < 5.00 | 5.00 to 6.00 | 5.00 to 6.00 | < 5.00 | < 5.00 | < 5.00
8 | [Cl-].[Cl-].[Co+2] [CoCl2, Cobalt(II) chloride] | < 5.00 | < 5.00 |  | < 5.00 | < 5.00 | < 5.00 | < 5.00
9 | [Cl-].[Cl-].[Mg+2] [MgCl2, Magnesium chloride] | < 5.00 | < 5.00 | < 5.00 | < 5.00 | < 5.00 | < 5.00 | < 5.00
10 | [Cl][Ni][Cl] [NiCl2, Nickel(II) chloride] | < 5.00 | < 5.00 | 5.00 to 6.00 | < 5.00 | < 5.00 | < 5.00 | < 5.00
11 | [Cl][Pd][Cl] [PdCl2, Palladium(II) chloride] | < 5.00 | < 5.00 | 5.00 to 6.00 | > 6.00 | > 6.00 | > 6.00 | < 5.00
12 | [Cl][Sn][Cl] [SnCl2, Tin(II) chloride] | < 5.00 | < 5.00 | < 5.00 | < 5.00 | < 5.00 | < 5.00 | < 5.00
13 | [Cl-].[Cl-].[Zn+2] [ZnCl2, Zinc(II) chloride] | < 5.00 | < 5.00 | < 5.00 | < 5.00 | < 5.00 | 5.00 to 6.00 | < 5.00

From publication PMC11285368, “Chasing Red Herrings: Palladium Metal Salt Impurities Feigning KRAS Activity in Biochemical Assays” (Journal of Medicinal Chemistry, 2024)
